Measured values: patent publication US8735442B2, “Composition for alleviating ultraviolet radiation-induced damage” (priority 2009, dated 2014)
Read-outs that look alike come from different tables or passages of the source.

Assays:
[1] = tested on: human neonatal epidermal keratinocyte (Cryo NHEK-Neo); assay: UV-B irradiation-induced cell damage in keratinocytes, D-amino acids and cysteine, Alamar Blue (Example 4); format: cell-based; conditions: UV-B 25 mJ/cm^2; 100 μM before and after irradiation; without the amino acid about 500 to 600
Description: The cell employed was a commercially available human neonatal epidermal keratinocyte (Cryo NHEK-Neo, Sanko-Junyaku Co., Ltd.). […] Thereafter, it was cultured for 2 days in 2 mL of the ordinary medium 3 containing 100 μM D-alanine, D-serine, D-hydroxyproline, D-aspartic acid, D-cysteine or L-cysteine. As a control, the ordinary medium 3 containing PBS instead of the D-amino acid was added to the ordinary medium 3.
Thereafter, the fluorescent intensity was measured by the method described in Example 1.

[2] = tested on: human dermal fibroblast derived from a patient having xeroderma pigmentosum (Group A) (XP30S (SVT)); assay: UV-A irradiation-induced cell damage in XP cells, pretreatment, Alamar Blue (Example 5); format: cell-based; conditions: UV-A 1 J/cm^2; pretreatment 0.1 μM; non-UV irradiating condition about 690, negative control about 630
Description: A human dermal fibroblast derived from a patient having xeroderma pigmentosum (Group […]), hereinafter referred to as “XP cell”) which was obtained from Japan Health Science Foundation was employed and cultured by the same method described in Example 3. […] The UV dose was measured using UV RADIOMETER […] Corporation).

[3] = tested on: human neonatal epidermal keratinocyte (Cryo NHEK-Neo); assay: UV-B irradiation-induced cell damage in keratinocytes, Alamar Blue (Example 1); format: cell-based; conditions: UV-B 75 mJ/cm^2; 0.1 to 100 μM, pretreatment or posttreatment; non-irradiated about 22,000, irradiated 5,000 to 7,000
Description: The cell employed was a commercially available human neonatal epidermal keratinocyte (Cryo NHEK-Neo, Sanko-Junyaku Co., Ltd.).
Thereafter, the culture medium was supplemented with Alamar Blue (trade mark, Biosource International Inc.) at a final concentration of 10%, and its supernatant was examined for the fluorescent intensity 3 hours later with an excitation wavelength of 544 nm and a fluorescent wavelength of 590 nm as described by Ahmed S. A. et al. (J. Immunol. Method. 170, 211-224 (1994)) and in accordance with the manufacture's instruction.

[4] = tested on: human neonatal dermal fibroblast (Cryo NHDF-Neo); assay: UV-A irradiation-induced cell damage in fibroblasts, pretreatment, Alamar Blue (Example 3); conditions: UV-A 22.5 J/cm^2; for fluorescent intensity: control about 1,100
[5] = tested on: human neonatal dermal fibroblast (Cryo NHDF-Neo); conditions: for fluorescent intensity / alleviation of the cell damage: 0.1 μM; for fluorescent intensity: Mean ± SD, N = 4-6; for alleviation of the cell damage: UV-A 12.5 J/cm^2 and 15 J/cm^2
Description: The cell employed was a commercially available human neonatal dermal fibroblast (Cryo NHDF-Neo, Sanko-Junyaku Co., Ltd.). This cell was inoculated at 2×10^5 cells/mL to a commercially available culture dish of 35 mm in diameter (BD FALCON 353001, Beckton Dickinson Japan), where it was cultured in a commercially available cell culture medium (D-MEM (1 g/L glucose, Wako Pure Chemical Industries, Ltd.) supplemented with 10% fetal bovine serum (hereinafter referred to as “ordinary medium 2”). This cell was cultured for about 24 hours in a 5% CO2 and saturated water vapor atmosphere at 37° C.
Thereafter, the culture medium for culturing the cell described above was switched to 1 mL of a BSO medium containing a glutathione biosynthesis inhibitor BSO (L-buthionine-(S,R)-sulfoximine, Wako Pure Chemical Industries, Ltd.) at 1×10^−3%, where the culture was conducted for about 24 hours in a 5% CO2 and saturated water vapor atmosphere at 37° C. The BSO medium described above was prepared by a 200-fold dilution of a stock solution containing 0.2% BSO in ethyl alcohol with the ordinary medium 2 described above.
[…] was dissolved in a distilled water at 2×10^−3%, and the resultant solution was subjected to a 200-fold dilution (final concentration: 1×10^−5%) with a phosphate buffer solution PBS containing calcium ion and magnesium ion (PBS+) to obtain a medium (hereinafter referred to as “UV irradiation medium”), which was warmed preliminarily before use.
Before UV-A irradiation, the culture medium was replaced with 1 mL of the UV irradiation medium described above. […] The UV dose was measured using UV RADIOMETER UVR-3036/S (Topcon Corporation).
After UV irradiation, the cell was returned to the ordinary medium 2 described above where it was cultured in a 5% CO2 and saturated water vapor atmosphere at 37° C. for 21 hours. For examining the effect of adding proline after UV irradiation (hereinafter referred to as “posttreatment”), this 21-hour cultured medium was supplemented with 0.01 to 1000 μM L- or D-proline.
Thereafter, the fluorescent intensity was measured by a method described in Example 1.

[6] = UV irradiation amount 0 J/cm^2, control 12380 ± 21
[7] = UV-A 12.5 J/cm^2, control 2503 ± 629
[8] = UV-A 15 J/cm^2, control 1018 ± 89

SMILES: C[C@@H](N)C(=O)O [D-alanine]
- fluorescent intensity of Alamar Blue [1]: about 570

SMILES: N[C@H](CC(=O)O)C(=O)O [D-aspartic acid]
- fluorescent intensity of Alamar Blue [1]: about 600

SMILES: N[C@H](CS)C(=O)O [D-cysteine]
- fluorescent intensity [2]: about 638
- fluorescent intensity of Alamar Blue [1]: about 700

SMILES: N[C@H](CCC(=O)O)C(=O)O [D-glutamic acid]
- cell damage alleviating effect (fluorescent intensity of Alamar Blue) [3]: the cell damage was alleviated
- fluorescent intensity [2]: about 675
- fluorescent intensity ([4]; pretreatment 1 μM): about 1,700

SMILES: O=C(O)[C@H]1C[C@H](O)CN1 [D-hydroxyproline]
- fluorescent intensity of Alamar Blue [1]: about 550

SMILES: O=C(O)[C@H]1CCCN1 [D-proline]
- fluorescent intensity [2]: about 664
- fluorescent intensity ([4]; pretreatment 0.1 μM): about 1,750
- fluorescent intensity [5, 6]: 12270 ± 68 ^
- fluorescent intensity [5, 7]: 4615 ± 1218 *^1
- alleviation of the cell damage [5]: the cell damage was alleviated
- fluorescent intensity [5, 8]: 2365 ± 648 *^2
- cell damage alleviating effect (fluorescent intensity of Alamar Blue) ([5]; UV-A 15 J/cm^2 and 22.5 J/cm^2, posttreatment, non-irradiated about 12,000, irradiated about 5,000 and about 3,000): the cell damage was alleviated

SMILES: N[C@H](CO)C(=O)O [D-serine]
- fluorescent intensity of Alamar Blue [1]: about 490

SMILES: N[C@@H](CS)C(=O)O [L-cysteine]
- fluorescent intensity [2]: about 688
- fluorescent intensity of Alamar Blue [1]: about 700

SMILES: N[C@@H](CCC(=O)O)C(=O)O [L-glutamic acid]
- cell damage alleviating effect (fluorescent intensity of Alamar Blue) [3]: No cell damage alleviating effect was observed
- fluorescent intensity [2]: about 658
- cell damage alleviating effect ([4]; pretreatment 1 μM): no cell damage alleviating effect was observed
- fluorescent intensity ([4]; pretreatment 1 μM): about 1,100

SMILES: O=C(O)[C@@H]1CCCN1 [L-proline, reference compound]
- fluorescent intensity [2]: about 583
- fluorescent intensity [5, 6]: 12211 ± 77
- fluorescent intensity [5, 7]: 2877 ± 834
- alleviation of the cell damage [5]: Almost no alleviation of the cell damage
- fluorescent intensity [5, 8]: 1552 ± 320
- alleviating effect on ultraviolet irradiation-induced damage ([5]; summary statement referring to the Examples): no alleviating effect on ultraviolet irradiation-induced damage
